What was measured:
[1] = system: endogenous GPCRs in A431 cells; experiment: DMR optical biosensor profiling of GPCR agonists; format: cell-based, human; details: quiescent A431; first class = Gq-type, second = Gs-type, third = Gi-type, fourth = no significant DMR
Method: Human epidermoid carcinoma A431 cells (American Type Cell Culture) were grown in Dulbecco's modified Eagle's medium (DMEM) supplemented with 10% fetal bovine serum (FBS), 4.5 g/liter glucose, 2 mM glutamine, and antibiotics. ˜3-7.5×10^4 cells at passage 3 to 5 suspended in 200 μl the DMEM medium containing 10% FBS were placed in each well of a 96 well microplate. Similarly ˜1-2×10^4 cells in 50 μl the growth medium were placed in each well of a 384 well microplate. After cell seeding, the cells were cultured at 37° C. under air/5% CO2 until ˜95% confluency was reached (˜2-4 days).
A Corning® Epic™ angular interrogation system with transverse magnetic or p-polarized TM0 mode was used for all studies. Several extra actions were taken to minimize the unwanted effects. First, to minimize the bulk index changes when a compound solution is introduced, 1×HBSS buffer without any probenecid was used to dilute all the compounds, whereas the DMEM buffer only was used to starve the cells. Secondly, to facilitate the cell responses as well as to rapidly reach a steady state when the sensor plates having cells were placed in the system at room temperature, the cells were pre-starved with the DMEM buffer without any FBS for a prolonged period of time (typically 20±2 hours), and the quiescent cells were directly used for assays without any wash.
For kinetics measurements, the cultured cells (˜95% confluency) were starved for about 20 hours with DMEM alone at 37° C. under air/5% CO2. Afterwards, the sensor microplate containing cells was placed into the optical system, and the cell responses were recorded before and after addition of a solution at room temperature. […] All studies were carried out at room temperature with the lid of the microplate on except for a short period of time (˜seconds) when the solution was introduced, in order to minimize the effect of temperature fluctuation and evaporative cooling. The unit of the responses indicated herein was a change in pixel of the central position of the resonant band of each sensor as imaged by a CCD camera; 1 unit equals to ˜5.82×10^−4 refractive index changes, based on an experimental normalization protocol, which uses the concentration-dependent responses of both glycerol and dimethyl sulfoxide.
The panel of agonists were used individually to stimulate quiescent A431 cells. The dose-dependent and kinetic responses were recorded and analyzed. In a typical kinetic measurement, the angular shift of resonant lights of each sensor induced by an agonist is monitored in real time and plotted as a function of time. An increased signal (P-DMR) means an increase in the amount of bio-molecules within the sensing volume (˜120 nm); conversely, a decreased signal (N-DMR) means a decrease in the amount of bio-molecules within the sensing volume. The sensing volume, also known as penetration depth, is an intrinsic property of the coupled light within the waveguide film, which creates an evanescent wave extending into the cell layer and the medium.

[2] = system: protease activated receptors PAR1 and PAR2; format: cell-based, human; details: interval about 1 hour
How it was run: (§1)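 A431 cells at passage 3-5 grown in DMEM/10% FBS at 37° C, 5% CO2 to ~95% confluency (~2-4 days). Compounds and PAR agonists prepared in 1×HBSS to match the refractive index of the cell medium for dynamic mass redistribution (DMR) read-out.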

[3] = molecular target: T1, protease activated receptors PAR1 and PAR2 (Homo sapiens, UniProt P25116); format: cell-based; details: quiescent A431; n=3
T1 construct: A431 cells which endogenously express PAR1 and PAR2; endogenous in cells; host or cells: A431
T1 sequence (P25116 22-425): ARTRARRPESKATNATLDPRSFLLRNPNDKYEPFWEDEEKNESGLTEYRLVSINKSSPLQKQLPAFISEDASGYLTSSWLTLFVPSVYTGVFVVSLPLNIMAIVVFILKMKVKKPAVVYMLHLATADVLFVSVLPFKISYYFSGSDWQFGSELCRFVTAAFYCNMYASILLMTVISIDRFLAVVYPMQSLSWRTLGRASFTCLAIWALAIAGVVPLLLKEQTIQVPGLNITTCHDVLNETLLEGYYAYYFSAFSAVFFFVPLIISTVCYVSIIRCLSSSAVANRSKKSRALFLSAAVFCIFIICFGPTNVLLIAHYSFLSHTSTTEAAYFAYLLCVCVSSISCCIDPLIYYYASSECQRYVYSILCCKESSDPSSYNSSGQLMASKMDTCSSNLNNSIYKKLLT
How it was run: as §1

PAR1 receptor = molecular target: T2, PAR1 receptor (Cricetulus griseus, UniProt A0A8C2QJ57); experiment: Endpoint wavelength-shift measurement, 384 well biosensor plate; format: cell-based, Chinese hamster; details: CHO cells; 5 minutes after addition
T2 construct: The PAR1 receptor is endogenously expressed in CHO cells; endogenous in cells; host or cells: CHO
T2 sequence (A0A8C2QJ57 22-428): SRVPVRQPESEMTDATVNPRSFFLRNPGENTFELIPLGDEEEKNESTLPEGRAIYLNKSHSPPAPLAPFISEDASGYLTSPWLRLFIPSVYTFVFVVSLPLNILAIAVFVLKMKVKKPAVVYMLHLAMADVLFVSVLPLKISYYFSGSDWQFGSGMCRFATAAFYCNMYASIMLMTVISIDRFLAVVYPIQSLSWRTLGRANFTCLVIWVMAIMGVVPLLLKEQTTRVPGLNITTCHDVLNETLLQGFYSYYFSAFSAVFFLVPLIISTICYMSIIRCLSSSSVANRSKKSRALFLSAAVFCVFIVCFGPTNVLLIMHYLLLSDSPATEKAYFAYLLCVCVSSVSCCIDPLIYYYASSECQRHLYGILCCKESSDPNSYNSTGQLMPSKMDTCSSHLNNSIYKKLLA
Method: The two time points were right before the compound addition (the baseline point), and 5 minutes after the compound addition (the measured point). The difference between two endpoints reflects the total amplitude of the P-DMR event mediated by thrombin—a PAR1 receptor agonist. Here a different cell line—CHO cells was used. The PAR1 receptor is endogenously expressed in CHO cells. The cells become partially quiescent by culturing the cells in the DMEM medium for 4 hours before the thrombin stimulation. In this example, a 384 well Coring Epic biosensor plate was used. Each well contains CHO cells with a confluency of ˜90%. Half of the wells were treated with thrombin at 40 unit/ml, whereas other half of the wells were treated with the buffer HBSS only. Since the agonist-induced activation of both B2 in A431 and PAR1 in CHO cells leads to Gq signaling, the significance of this assay results is that the Gq-type optical signature is at least universal in both cell lines. By using similar endpoint measurements, one is able to screen GPCR modulators against different endogenous targets in different cells.
The two time points were right before the compound addition (the baseline point), and 5 minutes after the compound addition (the measured point). The CHO cells were treated with thrombin at different doses. […]

[4] = system: actin filaments in A431 cells; experiment: Texas Red-phalloidin fluorescence imaging; format: cell-based, human; details: 100 nM trypsin or 40 unit/ml thrombin; ~95% confluency
Method: Cells were grown on Corning® Epic™ 96 well biosensor microplates, starved for overnight with serum-free DMEM medium, chased with either trypsin or thrombin for certain time, fixed with 4% paraformaldehyde, permeabilized in phosphate-buffered saline (PBS) containing 0.2% Triton, and blocked with 1% bovine serum albumin (BSA). Afterwards, cells were incubated with 0.5 μM Texas Red-labeled phalloidin for 1 h at room temperature, and washed. After final washes and mounting, cells were examined with a 40× objective, equipped in a Zeiss Axioplan fluorescence microscope.

[5] = system: protease activated receptors PAR1 and PAR2; experiment: Fluo-3 Ca2+ mobilization assay with PAR agonists; format: cell-based, human
How it was run: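 A431 cells (passage 3–5), serum-starved overnight, loaded with 4 μM Fluo-3 for 1 h in HBSS/20 mM HEPES pH 7.0 with 2.5 mM probenecid. PAR agonist added and calcium fluorescence recorded over 6 min at 6 s intervals, room temperature.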

With thrombin the “Class of optical signature (DMR) induced by agonist” value [1] was “first class of optical signatures”, the “Effect of preceding stimulation on trypsin-induced DMR signal” value [2] was “significantly suppresses but not completely eliminates the trypsin-induced DMR signal” and the “Apparent EC50 (P-DMR amplitude, Gq-type)” value [3] was 9.6±2.0 unit/ml. For the same substance, the “Apparent EC50 (endpoint wavelength shift)” value (PAR1 receptor) was 12.5 unit/ml, the “Reorganization of actin filaments” value [4] was “triggered significant cytoskeletal reorganization after about 10 min” and the “Effect of preceding stimulation on thrombin-mediated [Ca2+]i elevation” value ([5]; 40 unit/ml thrombin twice) was “totally blocked the [Ca^2+]i elevation mediated by 40 unit/ml thrombin”. For the same substance, the “Concentration required to induce a maximal response” value ([5]; [Ca2+]i) was 40 unit/ml, the “Effect of preceding stimulation on trypsin-induced [Ca2+]i elevation” value ([5]; interval 6 min, 200 nM trypsin) was “slightly suppressed the trypsin-induced [Ca^2+]i elevation” and the “EC50 of [Ca2+]i increase” value ([5]; quiescent A431, Fluo-3) was 6±1 unit/ml. The “Maximal [Ca2+]i elevation” value ([5]; quiescent A431, Fluo-3) was 48.2±3.5% and the EC50 ([5]; quiescent A431, Fluo-3, converted from unit/ml, read-out: EC50 of [Ca2+]i increase, equivalent) was 60 ± 10 nM.

Reference: patent US8852876B2, “Label free biosensors and cells” (Corning Incorporated, priority 2008, dated 2014)
